The results in this text go back to patent US20080206253A1, “Method For Preventing or Treating Pain in a Mammal” (priority 2005, published 2008).

“Also recorded” adds a separate entry of the source. No end group written: not given here.

Common to all, as to assay type: in vivo, rat
Assay [1] deals with rats, formalin-injected hind paw. The assay is described as follows: Formalin-induced flinching (paw formalin test). Particulars: IT injection 3-30 μg 10 minutes prior to formalin; 30 μg: P<0.05 versus vehicle. As for the experimental part: In recent work it was shown that inhibition of spinal p38 MAP kinase attenuated formalin-induced flinching. Svensson et al., J Neurochem 86: 1534-1544, 2003b. To examine the contribution of p38α and p38β in this experimental model of hyperalgesia, animals were injected with p38α, p38β AS or MS IT for five days. These animals were then examined on the formalin test. Unilateral intraplantar formalin solution (2.5%) caused a biphasic flinching pattern where the first 9 minutes are referred to as phase I and the following 50 minutes (min 10-60) as phase II. Yaksh et al., J Neurosci 21: 5847-5853, 2001a. The phase II flinching is considered to represent afferent input initiated spinal facilitation. Dickenson and Sullivan, Neurosci Lett 83: 207-211, 1987; Puig and Sorkin, Pain 64: 345-355, 1996. […] To further confirm the role of p38 to injury-induced pain behavior, a pharmacological inhibitor was also studied: SB203580, a p38α/β non-selective inhibitor.
To quantify formalin induced flinching, an automated sensing system was employed. Yaksh et al., J Appl Physiol 90: 2386-2402, 2001b. Briefly, a soft metal band was placed on the hind paw of the animal being tested. Animals were allowed to acclimate in individual Plexiglas chambers for 30 min before being moved to a test chamber. Just before the animals were placed into the test chamber, they were briefly restrained in a cloth towel, and 2.5% formalin (50 μl) was injected into the dorsal side of the banded paw. Nociceptive behavior was quantified by automatically counting the incidences of spontaneous flinching or shaking of the injected paw. The flinches were counted for 1-min periods for 60 minutes and the flinch data are expressed as number of flinches per min and total flinches observed during phase I (0-9 min) and phase II (10-60 min).

Assay [2] concerns PGE2. In words: IT SP-evoked spinal PGE2 release (intrathecal dialysis, ELISA). The source says:
It was previously shown that intrathecal injection of SP and NMDA, but not vehicle, evokes PGE2 release assessed by spinal dialysis. Hua et al., Neuroscience 89: 525-534, 1999b.; Svensson et al., Neuroreport 14: 1153-1157, 2003a. It has been reported that PLA2 which generates free arachidonic acid necessary for eicosanoid synthesis, requires phosphorylation to become fully activated and that this phosphorylation can be mediated by p38 MAP kinase. Borsch-Haubold et al., Eur J Biochem 245: 751-759, 1997. The effect of spinal p38α/β inhibition was assessed on IT S P-evoked PGE2 release by injecting SB203580 15 min prior to IT SP. Resting release of PGE2 was determined after a washout period of 30 min. In the absence of pretreatment, baseline dialysate concentrations were determined to be 243±13 femtomol/100 μl perfusate (N=20). If SP (30 nmol) produced a 6-8 fold increase in PGE2 level in intrathecal CSF (FIG. 8A). […] If injection of vehicle prior to IT SP ad no effect on IT SP-evoked PGE2 release.
(A) Bar graph showing PGE2 concentration (fmol/100 μl) measured in cerebrospinal fluid collected by in vivo spinal dialysis of conscious rats before and after IT injection of substance P(SP, 30 nmol) and SB302580 (30 μg). Spinal dialysate is removed and assayed for PGE2 by ELISA at baseline (B, average of two 15 min fractions collected prior to IT injection of SP) and F1: 0-15 minutes, F2: 15-30 minutes and F3: 30-45 minutes and 45-60 minutes after SP injection. Rats received IT SP or IT SB203580 (α/βp38 inhibitor) 15 minutes prior to IT SP. (B) PGE2 release is presented as area under curve (AUC) calculated 60 minutes after IT injection of SP with or without pretreatment with p38 inhibitors. […] Each bar represents the average and SEM for 4-8 rats per group and (*) represents P<[…] versus baseline.
Intrathecal Dialysis & PGE2 assay. Dialysis experiments were conducted in unanethetized rats 4-5 days after the implant. […] The concentration of PGE2 in spinal dialysate was measured by ELISA using a commercially available kit (Assay Designs 90001, Assay Designs, Ann Arbor, Mich.). […]
(In an ELISA, binding on a coated surface is turned into a signal by an enzyme label.)

For assay [3], the system named is phosphorylated p38 (P-p38). In words: IT substance P-evoked spinal p38 phosphorylation (Western blot). Particulars: IT SP 30 nmol, at 30 min, N=6, P<0.05. As for the experimental part: (§1) Yaksh et al., Nature 286: 155-157, 1980; Yaksh, Trends Pharmacol Sci 20: 329-337, 1999. […] Malmberg and Yaksh, Science 257: 1276-1279, 1992; Svensson et al., J Neurochem 86: 1534-1544, 2003. […] To investigate the contribution of p38α and p38β to SP-evoked hyperalgesia and p38 phosphorylation, spinal delivery of p38α and p38β AS and MS was carried out. Thermal withdrawal latencies was assessed after IT injection of SP and lumbar spinal cords collected immediately to compare the degree of spinal p38 phosphorylation at the hypothesized time of peak phosphorylation. IT injection of SP into the MS group produced an expected reduction of thermal withdrawal latency in comparison with IT saline injection into to vehicle treated animals (FIG. 7C). […] In contrast, IT SP-induced thermal hyperalgesia was attenuated in rats which had received p38β AS (FIG. 7E). […] Stripping and reprobing the western blot membranes confirmed that p38α protein expression was knocked down in p38α AS treated group (FIG. 7D) as well as p38β in the p38β AS group (FIG. 7F).
(A) Graph displaying paw withdrawal latency (PWL) plotted versus time. […] (B) Representative western blots showing levels of P-p38, total p38 and β-actin in lumbar spinal cord at different time points after IT injection of SP (30 nmol). IT-SP induced p38 phosphorylation peaks 30 minutes after SP injection. (C, E) Graph showing PWL assessed 15 and […] after bolus injection of IT saline or IT SP injection in rats treated with IT ACSF, MS (30 μg), p38α AS (30 fig) or p38β AS (20 μg) daily for five days. […] IT injection of MS or ACSF had no effect on IT SP-evoked thermal hyperalgesia. Each time point represents the mean ±SEM (n=4-5 per group). (D, F) Representative western blots showing the level of P-p38, p38α and p38β and β-actin protein expression assessed 30 minutes after IT SP injection.
Western blot. Prior to sacrifice, rats were deeply anesthetized and after decapitation the spinal cords were ejected from the vertebral column by a saline-filled syringe. The lumbar part of the spinal cord was immediately homogenized in extraction buffer (50 mM Tris buffer, pH 8.0, containing 0.5% Triton X-100, 150 mM NaCl, 1 mM EDTA, phosphatase and protease inhibitors) by sonication. […] After washing, the antibody-protein complexes were probed with appropriate secondary antibodies labeled with horseradish peroxidase for 1 hr at room temperature and detected with chemiluminescent reagents (SuperSignal, Pierce, Rockford, Ill.). […] Intensity of immunoreactive bands was quantified using ImageQuant software (Molecular Dynamics, Sunnyvale, Calif.). p38 immuno-positive bands were normalized relative to β-actin.
(In general: Immunoblotting shows a protein as a band on a membrane.)

Assay [4] relates to rats, IT SP (spinal NK-1 receptors). In words: IT substance P-evoked thermal hyperalgesia (paw withdrawal latency, Hargreaves device). The following applies: IT SP 30 nmol at T=0, versus IT saline. As for the experimental part:
as §1
Nociceptive models. To directly induce spinal sensitization, rats received intrathecal injections of sP (30 nmol) which activates spinal NK-1 receptors and produces thermal hyperalgesia. Hua et al., Neuroscience 89: 525-534, 1999a; Piercey et al., Science 214: 1361-1363, 1981; Yashpal and Henry, Can J Physiol Pharmacol 61: 303-307, 1983. Thermally evoked paw withdrawal responses were assessed using a Hargreaves type testing device. Dirig et al., J Neurosci Methods 76: 183-191, 1997. Briefly, rats were placed on a glass surface maintained at 30° C. The thermal nociceptive stimulus originates from a projection bulb below the glass surface, and the stimulus is delivered separately to one hind paw at a time. The animals were allowed to acclimatize on the glass surface and basal paw withdrawal latencies (PWL) were then assessed for left and right paws at time (T)=−40, =30 and −20 min and expressed as the mean of the six measurements. At T=−10 min the animals received intrathecal vehicle or drug and at T=0, sP was injected. Withdrawal latencies were then assessed at T=15, 30, 45 and 60 min. Paw withdrawal latency for each group was expressed as the mean at each time point.

On to `C[S+]([O-])c1ccc(-c2nc(-c3ccncc3)c(-c3ccc(F)cc3)[nH]2)cc1` (stereo not drawn) [SB203580, reference compound], for which the “flinching during phase II” value in assay [1] is given as “dose-dependent attenuation; also recorded: statistically different”. In addition, in assay [2] (30 μg IT prior to SP, AUC 60 minutes after IT SP, unpaired t-test P<0.05), the “SP-evoked release of PGE2, AUC between groups” value was “significantly lower”. Also, the “IT SP-evoked PGE2 release” value in assay [2] (pretreatment 30 μg IT, 15 min prior to IT SP 30 nmol) is given as “prevented IT SP-evoked PGE2 release”.

For “SP: substance P (Sigma), injected IT to activate spinal NK-1 receptors and produce thermal hyperalgesia (RPKPQQFFGLM-NH2; UniProt P20366 58-68, looked up) [reference compound]”, the “phosphorylation of spinal p38, peak effect, increase as compared to saline group” value in assay [3] came to 224±41%. For the same compound, the “paw withdrawal latency (PWL) after IT injection” value in assay [4] was “transient decrease in PWL”. In addition, the “increase in PGE2 level in intrathecal CSF” value in assay [2] (IT SP 30 nmol, spinal dialysis, conscious rats) is recorded as 6-8 fold.
